Results published in patent US7303763B2, “Compositions for conjugated estrogens and associated methods” (Watson Laboratories, Inc., priority 2001, dated 2007).

Experiment: Accelerated stability study of coated 0.625 mg conjugated estrogens tablets (active compounds and degradation products per USP, LOD)
Assay type: physicochemical
Conditions: for Change: initial % found versus 40c
From the text: (§1) Stability was monitored under different storage conditions.
as §1

[1] = acrylic-coated 0.625 mg tablets, Lot EXPWS 1251, 10% Eudragit/RS:RL (2:1), Initial
[2] = acrylic-coated tablets, Lot EXPWS 1251, 40c, 75% RH/1m
[3] = acrylic-coated tablets, Lot EXPWS 1251, 40c, 75% RH/2m
[4] = acrylic-coated tablets, Lot EXPWS 1251, 40c, 75% RH/3m
[5] = acrylic-coated tablets, Lot EXPWS 1251, 50c, 75% RH/2 wks
[6] = acrylic-coated tablets, Lot EXPWS 1251, 75% RH/3m
[7] = sugar-coated 0.625 mg tablets, Lot EXPWS 1246, Initial
[8] = sugar-coated tablets, Lot EXPWS 1246, 40c, 75% RH/1 mnth
[9] = sugar-coated tablets, Lot EXPWS 1246, 40c, 75% RH/2 mnth
[10] = sugar-coated tablets, Lot EXPWS 1246, 50c, 75% RH/2 wks

Row | % Found [1] | % Found [2] | % Initial [2] | % Found [3] | % Initial [3] | % Found [4] | % Initial [4] | % Found [5] | % Initial [5] | Change [6] | % Found [7] | % Found [8] | % Initial [8] | % Found [9] | % Initial [9] | % Found [10] | % Initial [10] | Structure (SMILES)
1 | 4.6% | 4.7% | 102.2% | 4.7% | 102.2% | 4.8% | 104.3% | 4.5% | 97.8% | −0.2 | 3.8% | 3.9% | 102.6% | 3.9% | 102.6% | 3.8% | 100.0% | C[C@]12CC[C@@H]3c4ccc(O)cc4CC[C@H]3[C@@H]1CC[C@H]2O [17a-estradiol]
2 | 0.77% | 0.97% | 126.0% | 0.86% | 111.7% | 0.68% | 88.3% | 0.67% | 87.0% | 0.09 | 0.56% | 0.58% | 103.6% | 0.44% | 78.6% | 0.63% | 112.5% | C[C@]12CCc3c(ccc4cc(O)ccc34)C1CCC2O (stereo partly drawn) [17b-dihydroequilenin]
3 | 4.15% | 4.13% | 99.5% | 4.02% | 96.9% | 3.91% | 94.2% | 4.07% | 98.1% | 0.24 | 4.72% | 4.68% | 99.2% | 4.53% | 96.0% | 4.91% | 104.0% | C[C@]12CCC3=C(CCc4cc(O)ccc43)[C@@H]1CCC2=O [d8,9 dehydroesterone]
4 | 1.26% | 0.90% | 71.4% | 0.96% | 76.2% | 0.88% | 69.8% | 1.11% | 88.1% | 0.38 | 0.60% | 0.56% | 93.3% | 0.62% | 103.3% | 0.59% | 98.3% | C[C@]12CC[C@@H]3c4ccc(O)cc4CC[C@H]3[C@@H]1CC[C@@H]2O [17b-estradiol]
5 | 2.3% | 2.6% | 108.7% | 2.4% | 104.3% | 2.4% | 104.3% | 2.2% | 95.7% | −0.1 | 1.3% | 1.3% | 100.0% | 1.4% | 107.7% | 1.3% | 100.0% | C[C@]12CC[C@H]3C(=CCc4cc(O)ccc43)[C@@H]1CC[C@@H]2O [17b-dihydroequilin]

More lines, now with the values behind:

Row | Structure (SMILES) | % Found [1] | % Found [2] | % Initial [2] | % Found [3] | % Initial [3] | % Found [4] | % Initial [4] | % Found [5] | % Initial [5] | Change [6] | % Found [7] | % Found [8] | % Initial [8] | % Found [9] | % Initial [9] | % Found [10] | % Initial [10]
6 | C[C@]12CCc3c(ccc4cc(O)ccc34)[C@@H]1CCC2=O [Equilenin] | 2.2% | 2.3% | 104.5% | 2.6% | 118.2% | 3.0% | 136.4% | 2.5% | 113.6% | −0.8 | 2.6% | 2.8% | 107.7% | 2.8% | 107.7% | 2.8% | 107.7%
7 | C[C@]12CC[C@H]3C(=CCc4cc(O)ccc43)[C@@H]1CCC2=O [Equilin] | 27.3% | 27.1% | 99.3% | 26.5% | 97.1% | 26.4% | 96.7% | 26.5% | 97.1% | 0.9 | 22.7% | 23.0% | 101.3% | 23% | 101.3% | 23.3% | 102.6%
8 | C[C@]12CC[C@H]3C(=CCc4cc(O)ccc43)[C@@H]1CC[C@H]2O [17a-dihydroequilin] | 17.9% | 17.9% | 100.0% | 17.6% | 98.3% | 18.1% | 101.1% | 17.4% | 97.2% | −0.2 | 14.0% | 14.3% | 102.1% | 14.5% | 103.6% | 14.5% | 103.6%
9 | C[C@]12CCc3c(ccc4cc(O)ccc34)[C@@H]1CC[C@H]2O [17a-dihydroequilenin] | 1.65% | 2.03% | 123.0% | 2.34% | 141.8% | 2.82% | 170.9% | 1.79% | 108.5% | −1.17 | 2.05% | 2.16% | 105.4% | 2.2% | 107.3% | 2.19% | 106.8%
